The source made the active and inactive calls. The rule behind the calls is not given here. Numbered stars: 1 amine (or outer) side, 2 acyl side, 3 side chain; on linkers, the order of the positions; unused ones are H or OH. Bridge positions count the residues as written; N and C are the ends. Square brackets hold non-standard residues; d marks the D form. Peptide text beside a SMILES is read from it. * marks the point of attachment. X2 = CCCN(C(=O)[C@@H](NC(=O)[C@H]1CCCCN1C)[C@@H](C)CC)[C@H](C[C@@H](OC(C)=O)c1nc(C(=O)N[C@@H](Cc2ccc(NC(=O)[C@H](CCCNC(N)=O)NC(=O)[C@@H](NC(=O)CCCCCN3C(=O)CC(*)C3=O)C(C)C)cc2)C[C@H](C)C(=O)O)cs1)C(C)C; Bip = N[C@@H](Cc1ccc(-c2ccccc2)cc1)C(=O)O; X1 = CN([C@@H](CC(N)O)C(=O)[*:2])[*:1]; NMeF = CN[C@@H](Cc1ccccc1)C(=O)O; Hpg = N[C@H](C(=O)O)c1ccc(O)cc1; Sar = CNCC(=O)O
Experiments:
[1] = target: T1, Inactive tyrosine-protein kinase transmembrane receptor ROR1 (Homo sapiens, UniProt Q01973); assay: Binding affinity to full length human His-tagged ROR1 (937 residues ) assessed as dissociation constant by SPR analysis
T1 sequence (Q01973 whole entry): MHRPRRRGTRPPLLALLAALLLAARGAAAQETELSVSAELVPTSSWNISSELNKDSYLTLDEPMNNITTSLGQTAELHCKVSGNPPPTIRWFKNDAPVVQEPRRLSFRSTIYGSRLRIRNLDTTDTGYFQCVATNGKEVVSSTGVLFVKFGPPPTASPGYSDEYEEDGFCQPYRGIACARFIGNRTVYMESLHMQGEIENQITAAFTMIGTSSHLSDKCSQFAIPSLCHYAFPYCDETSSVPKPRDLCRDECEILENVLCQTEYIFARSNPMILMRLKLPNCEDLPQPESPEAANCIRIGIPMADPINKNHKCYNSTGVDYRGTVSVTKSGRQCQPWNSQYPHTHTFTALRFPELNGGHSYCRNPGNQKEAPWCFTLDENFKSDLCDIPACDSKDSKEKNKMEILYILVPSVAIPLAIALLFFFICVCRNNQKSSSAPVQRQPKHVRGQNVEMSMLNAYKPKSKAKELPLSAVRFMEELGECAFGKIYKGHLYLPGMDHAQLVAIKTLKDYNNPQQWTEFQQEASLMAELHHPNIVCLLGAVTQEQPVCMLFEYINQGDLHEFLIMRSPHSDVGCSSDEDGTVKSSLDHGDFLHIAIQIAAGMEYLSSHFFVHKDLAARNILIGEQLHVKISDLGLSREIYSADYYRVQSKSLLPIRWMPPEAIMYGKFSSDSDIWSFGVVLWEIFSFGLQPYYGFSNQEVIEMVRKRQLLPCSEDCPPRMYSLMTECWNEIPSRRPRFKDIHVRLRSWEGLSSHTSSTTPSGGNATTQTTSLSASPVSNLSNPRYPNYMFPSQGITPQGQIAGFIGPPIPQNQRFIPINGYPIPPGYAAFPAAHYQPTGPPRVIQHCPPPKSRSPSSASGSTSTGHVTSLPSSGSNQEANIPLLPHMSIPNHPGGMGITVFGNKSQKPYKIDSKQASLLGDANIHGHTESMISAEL

[2] = target: T1, Inactive tyrosine-protein kinase transmembrane receptor ROR1; assay: Induction of ROR1 internalization in human 786-0; assay type: cell-based
[3] = target: Tyrosine-protein kinase transmembrane receptor ROR2 (Homo sapiens, UniProt Q01974); assay: Binding affinity to full length human His-tagged ROR2 (943 residues ) assessed as dissociation constant by SPR analysis
Tyrosine-protein kinase transmembrane receptor ROR2, sequence (Q01974 whole entry): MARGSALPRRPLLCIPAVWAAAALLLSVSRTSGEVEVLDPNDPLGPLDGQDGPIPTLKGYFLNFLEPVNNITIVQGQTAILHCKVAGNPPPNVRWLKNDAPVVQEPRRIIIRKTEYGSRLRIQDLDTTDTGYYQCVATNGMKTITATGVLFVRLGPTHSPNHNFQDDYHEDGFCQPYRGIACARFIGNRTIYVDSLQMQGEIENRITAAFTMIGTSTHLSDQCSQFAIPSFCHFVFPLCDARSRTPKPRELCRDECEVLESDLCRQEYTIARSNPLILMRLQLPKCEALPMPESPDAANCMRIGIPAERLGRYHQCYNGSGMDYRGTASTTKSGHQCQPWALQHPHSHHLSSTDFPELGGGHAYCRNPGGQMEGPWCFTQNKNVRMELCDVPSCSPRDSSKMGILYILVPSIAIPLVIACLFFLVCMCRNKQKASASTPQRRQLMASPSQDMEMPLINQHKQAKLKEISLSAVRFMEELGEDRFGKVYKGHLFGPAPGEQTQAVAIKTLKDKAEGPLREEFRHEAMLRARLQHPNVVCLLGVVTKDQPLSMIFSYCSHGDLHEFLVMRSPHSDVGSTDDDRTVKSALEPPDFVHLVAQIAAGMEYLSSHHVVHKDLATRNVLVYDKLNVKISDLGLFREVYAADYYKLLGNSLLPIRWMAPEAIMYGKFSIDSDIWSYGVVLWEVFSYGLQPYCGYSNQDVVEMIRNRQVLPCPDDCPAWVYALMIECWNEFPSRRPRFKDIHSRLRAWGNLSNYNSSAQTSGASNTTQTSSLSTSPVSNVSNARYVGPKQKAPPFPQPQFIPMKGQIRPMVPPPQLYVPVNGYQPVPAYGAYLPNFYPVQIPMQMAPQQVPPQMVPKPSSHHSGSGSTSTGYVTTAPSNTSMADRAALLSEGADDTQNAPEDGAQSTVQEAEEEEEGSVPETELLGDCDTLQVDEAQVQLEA

[4] = target: T1, Inactive tyrosine-protein kinase transmembrane receptor ROR1; assay: Induction of ROR1 internalization in human MIA PaCa-2; assay type: cell-based
[5] = target: T1, Inactive tyrosine-protein kinase transmembrane receptor ROR1; assay: Binding affinity to human ROR1 harbouring CRD domain at 100 nM relative to control
[6] = target: T1, Inactive tyrosine-protein kinase transmembrane receptor ROR1; assay: Binding affinity to ROR1 (unknown origin)
[7] = target: T1, Inactive tyrosine-protein kinase transmembrane receptor ROR1; assay: Binding affinity to human ROR1 harbouring IGt2 domain at 100 nM relative to control
[8] = target: T1, Inactive tyrosine-protein kinase transmembrane receptor ROR1; assay: Induction of ROR1 internalization in human 786-0 cells at 4 to 37 degreeC; assay type: cell-based
[9] = target: T1, Inactive tyrosine-protein kinase transmembrane receptor ROR1; assay: Binding affinity to human ROR1 expressed in HEK293 cells by cell based assay
[10] = […] stability in mouse serum assessed as half life; assay type: ADME, cell-free
[11] = Proteolytic stability in mouse serum assessed as half life; assay type: ADME, cell-free
[12] = target: T1, Inactive tyrosine-protein kinase transmembrane receptor ROR1; assay: Induction of ROR1 internalization in human MDA-MB-231; assay type: cell-based
[13] = system: MIA PaCa-2; assay: Induction of apoptosis in human MIA PaCa-2 cells assessed as activation of caspase3/7; assay type: functional, cell-based
[14] = system: HEK293; assay: Antiproliferative activity in HEK293 cells harbouring ROR1; assay type: toxicity, cell-based; details: Homo sapiens
[15] = system: 786-0; assay: Antiproliferative activity in human 786-0 cells; assay type: functional, cell-based
[16] = system: ASPC1; assay: Antiproliferative activity in human ASPC1 cells; assay type: functional, cell-based
[17] = system: JeKo-1; assay: Antiproliferative activity in human JeKo-1 cells; assay type: functional, cell-based
[18] = Stability in human serum assessed as half life; assay type: ADME, cell-free
[19] = Stability in mouse serum assessed as half life; assay type: ADME, cell-free

CC(C)C[C@@H]1NC(=O)[C@H](Cc2ccc(O)cc2)NC(=O)[C@H](Cc2ccccc2)NC(=O)CSC[C@@H](C(=O)NCC(=O)NCC(=O)NCC(=O)N[C@H](CCCCNC(=O)c2ccc3c(c2)C(=O)OC32c3ccc(O)cc3Oc3cc(O)ccc32)C(N)=O)NC(=O)[C@H](CC(C)C)NC(=O)[C@H](Cc2ccccc2)N(C)C(=O)[C@H](Cc2ccc(O)cc2)NC(=O)[C@H](Cc2c[nH]c3ccccc23)NC(=O)CNC(=O)[C@H](CO)NC(=O)[C@H](Cc2ccc(O)cc2)NC(=O)[C@H](C(C)C)NC1=O
Kd [1]: 34 nM
Activity [2]: inactive
Kd [3]: > 100 nM
Activity [4]: inactive

CC(C)C[C@@H]1NC(=O)[C@H](CC(N)O)N(C)C(=O)[C@H](Cc2ccccc2)NC(=O)CNC(=O)[C@H](Cc2ccc(O)cc2)NC(=O)[C@H](Cc2ccccc2)NC(=O)CSC[C@@H](C(N)=O)NC(=O)[C@H](Cc2c[nH]c3ccccc23)NC(=O)[C@H](Cc2ccc(O)cc2)NC1=O (some centres not stated) ({CH2CO}-FYGF[X1]LYWC-NH2; thioether N-9)
Activity [5]: 125%
IC50 [6]: 66 nM
Kd [1]: 22 nM
Kd [3]: > 11 nM
Activity [7]: 75%
Activity [8]: Active

CC(C)C[C@@H]1NC(=O)[C@H](Cc2ccc(O)cc2)NC(=O)[C@H](Cc2ccccc2)NC(=O)CSC[C@@H](C(=O)NCC(N)=O)NC(=O)[C@H](CC(C)C)NC(=O)[C@H](Cc2ccccc2)N(C)C(=O)[C@H](Cc2ccc(O)cc2)NC(=O)[C@H](Cc2c[nH]c3ccccc23)NC(=O)CNC(=O)[C@H](CO)NC(=O)[C@H](Cc2ccc(O)cc2)NC(=O)[C@H](C)NC1=O ({CH2CO}-FYLAYSGWY[NMeF]LCG-NH2; thioether N-12)
IC50 [9]: 12.3 nM

CC(C)C[C@@H]1NC(=O)[C@H](Cc2ccc(O)cc2)NC(=O)[C@H](Cc2ccccc2)NC(=O)CSC[C@@H](C(=O)NCC(N)=O)NC(=O)[C@H](CC(C)C)NC(=O)[C@H](Cc2ccccc2)N(C)C(=O)[C@H](Cc2ccc(O)cc2)NC(=O)[C@H](Cc2c[nH]c3ccccc23)NC(=O)CNC(=O)[C@H](CC(=O)O)NC(=O)[C@H](Cc2ccc(O)cc2)NC(=O)[C@H](C(C)C)NC1=O ({CH2CO}-FYLVYDGWY[NMeF]LCG-NH2; thioether N-12)
IC50 [9]: 14.4 nM

CC(C)C[C@@H]1NC(=O)[C@H](Cc2ccc(O)cc2)NC(=O)[C@H](Cc2ccccc2)NC(=O)CSC[C@@H](C(=O)NCC(N)=O)NC(=O)[C@H](C(C)C)NC(=O)[C@H](Cc2ccccc2)N(C)C(=O)[C@H](c2ccc(O)cc2)NC(=O)[C@H](Cc2c[nH]c3ccccc23)NC(=O)CNC(=O)[C@H](CC(N)=O)NC(=O)[C@H](Cc2ccc(O)cc2)NC(=O)[C@H](C(C)C)NC1=O ({CH2CO}-FYLVYNGW[Hpg][NMeF]VCG-NH2; thioether N-12)
IC50 [9]: 5.3 nM

CC(C)C[C@@H]1NC(=O)[C@H](Cc2ccc(O)cc2)NC(=O)[C@H](Cc2ccccc2)NC(=O)CSC[C@@H](C(=O)NCC(N)=O)NC(=O)[C@H](CC(C)C)NC(=O)[C@H](Cc2ccccc2)N(C)C(=O)[C@H](Cc2ccc(O)cc2)NC(=O)[C@H](Cc2c[nH]c3ccccc23)NC(=O)CNC(=O)[C@H](CCC(N)=O)NC(=O)[C@H](Cc2ccc(O)cc2)NC(=O)[C@H](C(C)C)NC1=O ({CH2CO}-FYLVYQGWY[NMeF]LCG-NH2; thioether N-12)
IC50 [9]: 7.2 nM

CC(C)C[C@@H]1NC(=O)[C@H](Cc2ccc(O)cc2)NC(=O)[C@H](Cc2ccccc2)NC(=O)CSC[C@@H](C(N)=O)NC(=O)[C@H](CC(C)C)NC(=O)[C@H](Cc2ccccc2)N(C)C(=O)[C@H](Cc2ccc(O)cc2)NC(=O)[C@H](Cc2c[nH]c3ccccc23)NC(=O)CNC(=O)[C@H](CO)NC(=O)[C@H](Cc2ccc(O)cc2)NC(=O)[C@H](C(C)C)NC1=O ({CH2CO}-FYLVYSGWY[NMeF]LC-NH2; thioether N-12)
IC50 [9]: 7.2 nM

CC(C)C[C@@H]1NC(=O)[C@H](Cc2ccc(O)cc2)NC(=O)[C@H](Cc2ccccc2)NC(=O)CSC[C@@H](C(=O)NCC(N)=O)NC(=O)[C@H](CC(C)C)NC(=O)[C@H](Cc2ccccc2)N(C)C(=O)[C@H](Cc2ccc(O)cc2)NC(=O)[C@H](Cc2c[nH]c3ccccc23)NC(=O)CNC(=O)[C@H](CO)NC(=O)[C@H](Cc2ccc(O)cc2)NC(=O)[C@H](C(C)C)NC1=O ({CH2CO}-FYLVYSGWY[NMeF]LCG-NH2; thioether N-12)
Activity [5]: 104%
Activity [2]: Active
Kd [3]: 43 nM
half-life [10]: > 24 h
half-life [11]: > 24 h
Activity [7]: 68%
Activity [12]: Active
Activity [8]: Active
Activity [13]: inactive

CC(C)C[C@@H]1NC(=O)[C@H](Cc2ccc(O)cc2)NC(=O)[C@H](Cc2ccccc2)NC(=O)CSC[C@@H](C(=O)NCC(=O)NCC(=O)NCC(=O)NCC(=O)O)NC(=O)[C@H](CC(C)C)NC(=O)[C@H](Cc2ccccc2)N(C)C(=O)[C@H](Cc2ccc(O)cc2)NC(=O)[C@H](Cc2c[nH]c3ccccc23)NC(=O)CNC(=O)[C@H](CO)NC(=O)[C@H](Cc2ccc(O)cc2)NC(=O)[C@H](C(C)C)NC1=O ({CH2CO}-FYLVYSGWY[NMeF]LCGGGG-OH; thioether N-12)
EC50 [14]: 55.3 nM
EC50 [15]: 63.7 nM
EC50 [16]: 76.6 nM
EC50 [17]: 89 nM

CCCN(C(=O)[C@@H](NC(=O)[C@H]1CCCCN1C)[C@@H](C)CC)[C@H](C[C@@H](OC(C)=O)c1nc(C(=O)N[C@@H](Cc2ccc(NC(=O)[C@H](CCCNC(N)=O)NC(=O)[C@@H](NC(=O)CCCCCN3C(=O)CC(SC[C@H](NC(=O)CNC(=O)CNC(=O)CNC(=O)CNC(=O)[C@@H]4CSCC(=O)N[C@@H](Cc5ccccc5)C(=O)N[C@@H](Cc5ccc(O)cc5)C(=O)N[C@@H](CC(C)C)C(=O)N[C@@H](C(C)C)C(=O)N[C@@H](Cc5ccc(O)cc5)C(=O)N[C@@H](CO)C(=O)NCC(=O)N[C@@H](Cc5c[nH]c6ccccc56)C(=O)N[C@@H](Cc5ccc(O)cc5)C(=O)N(C)[C@@H](Cc5ccccc5)C(=O)N[C@@H](CC(C)C)C(=O)N4)C(N)=O)C3=O)C(C)C)cc2)C[C@H](C)C(=O)O)cs1)C(C)C (some centres not stated) ({CH2CO}-FYLVYSGWY[NMeF]LCGGGGC(X2)-NH2; thioether N-12)
EC50 [14]: 27.3 nM
EC50 [15]: 154 nM
EC50 [16]: 145 nM
EC50 [17]: 334 nM

CC(C)C[C@@H]1NC(=O)[C@H](Cc2ccc(O)cc2)NC(=O)[C@H](Cc2ccccc2)NC(=O)CSC[C@@H](C(=O)NCC(N)=O)NC(=O)[C@H](CC(C)C)NC(=O)[C@H](Cc2ccccc2)N(C)C(=O)[C@H](Cc2ccc(O)cc2)NC(=O)[C@H](Cc2c[nH]c3ccccc23)NC(=O)CNC(=O)[C@H](Cc2ccc(O)cc2)NC(=O)[C@H](Cc2ccc(O)cc2)NC(=O)[C@H](C(C)C)NC1=O ({CH2CO}-FYLVYYGWY[NMeF]LCG-NH2; thioether N-12)
IC50 [9]: 8.6 nM

CC(C)C[C@@H]1NC(=O)[C@H](Cc2ccccc2)N(C)C(=O)[C@H](Cc2ccc(O)cc2)NC(=O)[C@H](Cc2c[nH]c3ccccc23)NC(=O)CNC(=O)[C@H](CO)NC(=O)[C@H](Cc2ccc(O)cc2)NC(=O)[C@H](C(C)C)NC(=O)[C@@H]2CCCN2C(=O)[C@H](Cc2ccc(O)cc2)NC(=O)[C@H](Cc2ccccc2)NC(=O)CSC[C@@H](C(=O)NCC(N)=O)NC1=O ({CH2CO}-FYPVYSGWY[NMeF]LCG-NH2; thioether N-12)
IC50 [9]: 5.2 nM

CC(C)C[C@@H]1NC(=O)[C@H](Cc2ccccc2)N(C)C(=O)[C@H](Cc2ccc(O)cc2)NC(=O)[C@H](Cc2c[nH]c3ccccc23)NC(=O)CNC(=O)[C@H](CO)NC(=O)[C@H](Cc2ccc(O)cc2)NC(=O)[C@H](C(C)C)NC(=O)[C@H](CCCNC(=N)N)NC(=O)[C@H](Cc2ccc(O)cc2)NC(=O)[C@H](Cc2ccccc2)NC(=O)CSC[C@@H](C(=O)NCC(N)=O)NC1=O ({CH2CO}-FYRVYSGWY[NMeF]LCG-NH2; thioether N-12)
IC50 [9]: 6.3 nM

CN1CC(=O)N[C@@H](CO)C(=O)N[C@@H](Cc2ccc(-c3ccccc3)cc2)C(=O)NCC(=O)N[C@@H](CCCNC(=N)N)C(=O)N[C@@H](CCCNC(=N)N)C(=O)N[C@@H](CCCNC(=N)N)C(=O)NCC(=O)N[C@H](C(=O)NCC(N)=O)CSCC(=O)N[C@@H](Cc2ccccc2)C(=O)N[C@@H](Cc2ccc(O)cc2)C1=O ({CH2CO}-FY[Sar]S[Bip]GRRRGCG-NH2; thioether N-11)
Activity [5]: 114%
Kd [1]: 3 nM
Kd [3]: > 100 nM
half-life [18]: 1.1 h
half-life [10]: 24 h
Activity [7]: 125%
Activity [8]: inactive
half-life [19]: 0.517 h

CC(C)C[C@@H]1NC(=O)[C@H](Cc2ccc(O)cc2)NC(=O)[C@H](Cc2c[nH]c3ccccc23)NC(=O)CSC[C@@H](C(=O)NCC(N)=O)NC(=O)[C@H](CC(C)C)NC(=O)[C@H](Cc2ccccc2)N(C)C(=O)[C@H](Cc2ccc(O)cc2)NC(=O)[C@H](Cc2c[nH]c3ccccc23)NC(=O)CNC(=O)[C@H](CO)NC(=O)[C@H](Cc2ccc(O)cc2)NC(=O)[C@H](C(C)C)NC1=O ({CH2CO}-WYLVYSGWY[NMeF]LCG-NH2; thioether N-12)
Activity [2]: Active
Activity [12]: Active
IC50 [9]: 2.2 nM

CC[C@H](C)[C@H](NC(=O)[C@H]1CCCCN1C)C(=O)N(COC(=O)CC(C)C)[C@H](C[C@@H](OC(C)=O)c1nc(C(=O)N[C@@H](Cc2ccc(C)cc2)C[C@H](C)C(=O)O)cs1)C(C)C [TUBULYSIN]
EC50 [15]: 0.57 nM

Source: ChEMBL document CHEMBL5356977, “Exploration of macrocyclic peptide binders to the extracellular CRD domain of human receptor tyrosine kinase-like orphan receptor 1 (ROR1)” (Bioorg Med Chem Lett, 2024)
